Laboratory results: ChEMBL document CHEMBL1201862, “PubChem BioAssay data set” (2004)
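Interpolation was linear, between the two tested concentrations surrounding the appropriate level; five concentrations were tested over 48 hours in 96-well plates. The concentration for 50% growth inhibition is given as GI50.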 Activity calls are given as the source filed them. Rule as the data show it: active = GI50 up to about 1.1 µM and inactive = higher.

Key:
Experiment in all cases: NCI anticancer screen, dose series, 48 h
KM12 = test system: KM12
SK-OV-3 = test system: SK-OV-3
UO-31 = test system: UO-31
HL-60 = test system: HL-60
NCI-H522 = test system: NCI-H522
U-251 = test system: U-251
K562 = test system: K562
HOP-62 = test system: HOP-62
HT-29 = test system: HT-29
786-0 = test system: 786-0
SN12C = test system: SN12C
SNB-19 = test system: SNB-19
OVCAR-3 = test system: OVCAR-3
SF-539 = test system: SF-539
CAKI-1 = test system: CAKI-1
MOLT-4 = test system: MOLT-4
NCI-H460 = test system: NCI-H460
NCI-H226 = test system: NCI-H226
HCT-116 = test system: HCT-116
SR = test system: SR

| SMILES | GI50 (KM12) | GI50 (SK-OV-3) | GI50 (UO-31) | GI50 (HL-60) | GI50 (NCI-H522) | GI50 (U-251) | GI50 (K562) | GI50 (HOP-62) | GI50 (HT-29) | GI50 (786-0) | GI50 (SN12C) | GI50 (SNB-19) | GI50 (OVCAR-3) | GI50 (SF-539) | GI50 (CAKI-1) | GI50 (MOLT-4) | GI50 (NCI-H460) | GI50 (NCI-H226) | GI50 (HCT-116) | GI50 (SR) |
| --- | --- | --- | --- | --- | --- | --- | --- | --- | --- | --- | --- | --- | --- | --- | --- | --- | --- | --- | --- | --- |
| C=CCNC1=NC(=O)C(CC(=O)Nc2cccc(Cl)c2)S1 (stereo unspecified) | > 100 µM (inactive) | > 100 µM (inactive) | > 100 µM (inactive) | > 100 µM (inactive) | > 100 µM (inactive) | > 100 µM (inactive) | > 100 µM (inactive) | > 100 µM (inactive) | > 100 µM (inactive) | > 100 µM (inactive) | > 100 µM (inactive) | > 100 µM (inactive) | > 100 µM (inactive) | > 100 µM (inactive) | > 100 µM (inactive) | > 100 µM (inactive) | > 100 µM (inactive) | > 100 µM (inactive) | – | – |
| COc1cc(/C=C2\CCC(C)C3=C2N=c2s/c(=C/c4ccc(Cl)cc4)c(=O)n2C3c2cc(OC)c(OC)c(OC)c2)cc(OC)c1OC (stereo unspecified) | > 100 µM (inactive) | > 100 µM (inactive) | > 100 µM (inactive) | > 100 µM (inactive) | – | > 100 µM (inactive) | > 100 µM (inactive) | > 100 µM (inactive) | > 100 µM (inactive) | > 100 µM (inactive) | > 100 µM (inactive) | > 100 µM (inactive) | – | – | > 100 µM (inactive) | > 100 µM (inactive) | – | – | > 100 µM (inactive) | > 100 µM (inactive) |
| Cc1ccc(S(=O)(=O)NC(=O)Nc2nc(Cl)cc(Cl)n2)cc1 | > 100 µM (inactive) | > 100 µM (inactive) | > 100 µM (inactive) | > 100 µM (inactive) | 5.89 µM (inactive) | > 100 µM (inactive) | 62.2 µM (inactive) | > 100 µM (inactive) | – | > 100 µM (inactive) | > 100 µM (inactive) | > 100 µM (inactive) | > 100 µM (inactive) | > 100 µM (inactive) | > 100 µM (inactive) | 57.7 µM (inactive) | > 100 µM (inactive) | > 100 µM (inactive) | > 100 µM (inactive) | – |
| CCOC(=O)C1=C(Nc2ccccc2)OC/C1=N\NC(=O)Cc1ccccc1 | > 50 µM (inactive) | > 50 µM (inactive) | > 50 µM (inactive) | > 50 µM (inactive) | > 50 µM (inactive) | > 50 µM (inactive) | > 50 µM (inactive) | > 50 µM (inactive) | > 50 µM (inactive) | > 50 µM (inactive) | > 50 µM (inactive) | > 50 µM (inactive) | > 50 µM (inactive) | > 50 µM (inactive) | > 50 µM (inactive) | > 50 µM (inactive) | > 50 µM (inactive) | > 50 µM (inactive) | > 50 µM (inactive) | – |
| CC1(C)N=C(C2CCCN2C(=O)OCc2ccccc2)OC1=O (stereo unspecified) | > 100 µM (inactive) | > 100 µM (inactive) | > 100 µM (inactive) | > 100 µM (inactive) | > 100 µM (inactive) | > 100 µM (inactive) | > 100 µM (inactive) | > 100 µM (inactive) | > 100 µM (inactive) | > 100 µM (inactive) | > 100 µM (inactive) | > 100 µM (inactive) | > 100 µM (inactive) | > 100 µM (inactive) | > 100 µM (inactive) | > 100 µM (inactive) | > 100 µM (inactive) | > 100 µM (inactive) | > 100 µM (inactive) | – |
| Cc1ccccc1NC(=O)CC(=O)N1N=C(N2c3ccccc3Sc3ccccc32)CC1c1ccccc1 (stereo unspecified) | > 100 µM (inactive) | > 100 µM (inactive) | > 100 µM (inactive) | – | – | > 100 µM (inactive) | – | > 100 µM (inactive) | > 100 µM (inactive) | – | > 100 µM (inactive) | > 100 µM (inactive) | > 100 µM (inactive) | > 100 µM (inactive) | > 100 µM (inactive) | > 100 µM (inactive) | > 100 µM (inactive) | > 100 µM (inactive) | > 100 µM (inactive) | > 100 µM (inactive) |
| CCCCc1ccc(-n2c3nc(=O)n(C)c(=O)c-3nc3ccccc32)cc1 | 11.2 µM (inactive) | 37.7 µM (inactive) | 12.5 µM (inactive) | 10.6 µM (inactive) | 7.6 µM (inactive) | 10.6 µM (inactive) | 12.4 µM (inactive) | 18.2 µM (inactive) | 3.11 µM (inactive) | 16.3 µM (inactive) | 7.35 µM (inactive) | 8.24 µM (inactive) | 2.86 µM (inactive) | 14.1 µM (inactive) | 18.4 µM (inactive) | 15.3 µM (inactive) | 4.03 µM (inactive) | 11.7 µM (inactive) | 12.3 µM (inactive) | – |
| CCCCN=C(OC1C=CCCC1)SC (stereo unspecified) | – | > 100 µM (inactive) | > 100 µM (inactive) | > 100 µM (inactive) | – | > 100 µM (inactive) | > 100 µM (inactive) | > 100 µM (inactive) | > 100 µM (inactive) | > 100 µM (inactive) | > 100 µM (inactive) | > 100 µM (inactive) | > 100 µM (inactive) | – | – | > 100 µM (inactive) | > 10 µM (inactive) | > 100 µM (inactive) | > 100 µM (inactive) | > 100 µM (inactive) |
| CCC(C(C)N1CC(=O)NC(=O)C1)N1CC(=O)NC(=O)C1 (stereo unspecified) | > 100 µM (inactive) | > 100 µM (inactive) | > 37.5 µM (inactive) | 2.06 µM (inactive) | 5.65 µM (inactive) | > 61.9 µM (inactive) | 9.77 µM (inactive) | 7.01 µM (inactive) | 62.1 µM (inactive) | – | 6.27 µM (inactive) | > 100 µM (inactive) | > 100 µM (inactive) | > 39.7 µM (inactive) | > 100 µM (inactive) | 0.69 µM (active) | 0.141 µM (active) | 16.1 µM (inactive) | 23.4 µM (inactive) | – |
| CN(C)CCCCN1c2ccccc2Sc2ccc(N=[N+]=[N-])cc21 | 3.15 µM (inactive) | 12.9 µM (inactive) | 6.34 µM (inactive) | 2.06 µM (inactive) | 4.09 µM (inactive) | 3.13 µM (inactive) | 2.05 µM (inactive) | 11.5 µM (inactive) | 2.22 µM (inactive) | 8.69 µM (inactive) | 8.43 µM (inactive) | 8.85 µM (inactive) | 6.05 µM (inactive) | 5.05 µM (inactive) | 5.62 µM (inactive) | 1.39 µM (inactive) | 4.09 µM (inactive) | 6.11 µM (inactive) | 4.21 µM (inactive) | – |
| CCCCSCC(NC(=O)/C=C/c1c(C)[nH]c(=O)[nH]c1=O)C(=O)OC (stereo unspecified) | 24.9 µM (inactive) | 45.4 µM (inactive) | 49.4 µM (inactive) | 76.6 µM (inactive) | 14.9 µM (inactive) | 16.6 µM (inactive) | 44.1 µM (inactive) | 70.5 µM (inactive) | 102 µM (inactive) | – | 37.8 µM (inactive) | 29 µM (inactive) | 13.2 µM (inactive) | 61.2 µM (inactive) | 32.3 µM (inactive) | 50.1 µM (inactive) | 57.5 µM (inactive) | 43.9 µM (inactive) | 30.3 µM (inactive) | – |
| CC1(C)CC23C4COC(=O)C2CCC1C3CC4=O (stereo unspecified) | 12.6 µM (inactive) | 39.3 µM (inactive) | 28.6 µM (inactive) | 3.06 µM (inactive) | 3.32 µM (inactive) | 20.7 µM (inactive) | 9.84 µM (inactive) | 24.4 µM (inactive) | 22.9 µM (inactive) | – | 15.8 µM (inactive) | 28.3 µM (inactive) | 12.5 µM (inactive) | 19.5 µM (inactive) | 5.47 µM (inactive) | 5.87 µM (inactive) | 11.1 µM (inactive) | 6.59 µM (inactive) | 6.71 µM (inactive) | – |
| Cn1nc(C(=O)N2CC(CCl)c3c2cc(N)c2ccccc32)cc1NC(=O)Nc1cc(C(=O)N2CC(CCl)c3c2cc(N)c2ccccc32)nn1C (stereo unspecified) | 0.948 µM (active) | 0.3 µM (active) | 14.1 µM (inactive) | – | – | 0.0212 µM (active) | 0.231 µM (active) | 0.682 µM (active) | 0.0215 µM (active) | 0.0547 µM (active) | 0.0323 µM (active) | 0.0621 µM (active) | 0.201 µM (active) | 0.016 µM (active) | 0.254 µM (active) | < 0.01 µM (active) | < 0.01 µM (active) | – | 0.0818 µM (active) | < 0.01 µM (active) |
| N#CNC1=NC(CCCC(=O)Nc2cccc([N+](=O)[O-])c2)=C(c2nc3ccccc3[nH]2)C(N)N1 (stereo unspecified) | > 100 µM (inactive) | > 100 µM (inactive) | > 100 µM (inactive) | > 100 µM (inactive) | > 100 µM (inactive) | – | > 100 µM (inactive) | > 100 µM (inactive) | > 100 µM (inactive) | > 100 µM (inactive) | > 100 µM (inactive) | > 100 µM (inactive) | > 100 µM (inactive) | > 100 µM (inactive) | > 100 µM (inactive) | > 100 µM (inactive) | > 100 µM (inactive) | > 100 µM (inactive) | – | – |
| Cc1cc(C(C)(C)C)cc(Cc2cc(C(C)(C)C)cc(Cc3cc(C(C)(C)C)cc(C)c3O)c2O)c1O | 9.66 µM (inactive) | 14.1 µM (inactive) | 13.2 µM (inactive) | 3.71 µM (inactive) | 3.71 µM (inactive) | 4.07 µM (inactive) | 4.54 µM (inactive) | 15.4 µM (inactive) | 11.7 µM (inactive) | 5.64 µM (inactive) | 7.28 µM (inactive) | 13 µM (inactive) | 4.75 µM (inactive) | 7.71 µM (inactive) | 12.6 µM (inactive) | 3.04 µM (inactive) | 10.1 µM (inactive) | 12.1 µM (inactive) | 3.13 µM (inactive) | – |
